Data from patent US8119644B2, “Thiadiazole-substituted arylamides as P2X3 and P2X2/3 antagonists” (Roche Palo Alto LLP, priority 2008, dated 2012).

Key:
human P2X2/3 receptor = target: T1, human P2X2/3 receptor (Homo sapiens, UniProt P56373+Q9UBL9); test: P2X2/3 FLIPR (Fluorometric Imaging Plate Reader) assay, CHO-K1 cells; format: cell-based; conditions: CHO-K1 cells transfected with human P2X2/3; agonist α,β-meATP 5 μM; Fluo-3 calcium fluorescence; read-out: P2X2/3 (pKi) (converted)
T1 construct: expressed in transfected cells; host or cells: CHO-K1
T1 sequence (Q9UBL9 1-471): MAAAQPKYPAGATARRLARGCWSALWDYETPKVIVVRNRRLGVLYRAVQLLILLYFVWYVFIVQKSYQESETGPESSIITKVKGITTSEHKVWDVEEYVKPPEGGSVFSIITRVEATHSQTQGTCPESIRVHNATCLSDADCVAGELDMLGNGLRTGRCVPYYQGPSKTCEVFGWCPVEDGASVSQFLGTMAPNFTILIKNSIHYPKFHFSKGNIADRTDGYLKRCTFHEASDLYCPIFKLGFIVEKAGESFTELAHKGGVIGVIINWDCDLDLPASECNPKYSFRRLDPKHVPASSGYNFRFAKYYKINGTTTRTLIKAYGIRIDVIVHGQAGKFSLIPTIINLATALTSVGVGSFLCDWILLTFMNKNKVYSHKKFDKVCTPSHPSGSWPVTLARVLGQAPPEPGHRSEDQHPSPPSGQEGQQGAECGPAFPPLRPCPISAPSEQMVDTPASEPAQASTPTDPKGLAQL
T1 sequence (P56373 1-397): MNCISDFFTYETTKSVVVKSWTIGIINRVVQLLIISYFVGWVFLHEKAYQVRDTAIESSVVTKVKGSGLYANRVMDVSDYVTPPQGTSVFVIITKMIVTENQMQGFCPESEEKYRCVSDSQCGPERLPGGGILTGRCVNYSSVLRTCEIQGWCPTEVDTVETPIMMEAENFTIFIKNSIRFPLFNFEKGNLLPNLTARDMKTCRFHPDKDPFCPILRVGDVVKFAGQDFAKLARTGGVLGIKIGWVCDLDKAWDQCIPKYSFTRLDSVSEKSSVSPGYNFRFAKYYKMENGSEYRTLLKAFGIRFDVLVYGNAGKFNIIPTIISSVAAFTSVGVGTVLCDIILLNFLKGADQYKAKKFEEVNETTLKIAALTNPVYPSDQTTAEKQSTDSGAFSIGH
Procedure: (§1) P2X3/P2X2/3 FLIPR (Fluorometric Imaging Plate Reader) Assay
(§2) CHO-K1 cells were transfected with cloned rat P2X3 or human P2X2/3 receptor subunits and passaged in flasks. 18-24 hours before the FLIPR experiment, cells were released from their flasks, centrifuged, and resuspended in nutrient medium at 2.5×10^5 cells/ml. The cells were aliquoted into black-walled 96-well plates at a density of 50,000 cells/well and incubated overnight in 5% CO2 at 37° C. On the day of the experiment, cells were washed in FLIPR buffer (calcium- and magnesium-free Hank's balanced salt solution, 10 mM HEPES, 2 mM CaCl2, 2.5 mM probenecid; FB). Each well received 100 μl FB and 100 μl of the fluorescent dye Fluo-3 AM [2 μM final conc.]. After a 1 hour dye loading incubation at 37° C., the cells were washed 4 times with FB, and a final 75 μl/well FB was left in each well.
(§3) Test compounds (dissolved in DMSO at 10 mM and serially diluted with FB) or vehicle were added to each well (25 μl of a 4× solution) and allowed to equilibrate for 20 minutes at room temperature. The plates were then placed in the FLIPR and a baseline fluorescence measurement (excitation at 488 nm and emission at 510-570 nm) was obtained for 10 seconds before a 100 μl/well agonist or vehicle addition. The agonist was a 2× solution of α,β-meATP producing a final concentration of 1 μM (P2X3) or 5 μM (P2X2/3). Fluorescence was measured for an additional 2 minutes at 1 second intervals after agonist addition. A final addition of ionomycin (5 μM, final concentration) was made to each well of the FLIPR test plate to establish cell viability and maximum fluorescence of dye-bound cytosolic calcium. Peak fluorescence in response to the addition of α,β-meATP (in the absence and presence of test compounds) was measured and inhibition curves generated using nonlinear regression. PPADS, a standard P2X antagonist, was used as a positive control.

rat P2X3 receptor = target: T2, rat P2X3 receptor (Rattus norvegicus, UniProt P49654); test: P2X3 FLIPR (Fluorometric Imaging Plate Reader) assay, CHO-K1 cells; format: cell-based; conditions: CHO-K1 cells transfected with cloned rat P2X3; agonist α,β-meATP 1 μM; Fluo-3 calcium fluorescence; read-out: P2X3 (pKi) (converted)
T2 construct: expressed in transfected cells; host or cells: CHO-K1
T2 sequence (P49654 1-397): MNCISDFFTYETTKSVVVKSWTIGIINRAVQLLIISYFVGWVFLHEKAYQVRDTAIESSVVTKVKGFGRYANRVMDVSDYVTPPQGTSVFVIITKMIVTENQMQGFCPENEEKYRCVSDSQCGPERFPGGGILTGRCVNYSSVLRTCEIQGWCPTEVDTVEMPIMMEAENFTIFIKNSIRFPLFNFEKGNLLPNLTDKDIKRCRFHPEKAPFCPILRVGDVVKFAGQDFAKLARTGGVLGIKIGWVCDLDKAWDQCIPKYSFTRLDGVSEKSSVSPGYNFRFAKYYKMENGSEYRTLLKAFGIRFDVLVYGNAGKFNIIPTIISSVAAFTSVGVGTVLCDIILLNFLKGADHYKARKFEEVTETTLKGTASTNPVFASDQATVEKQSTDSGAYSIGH
Procedure: as §1, §2, §3

Row | SMILES | Ki (human P2X2/3 receptor) [nM] | Ki (rat P2X3 receptor) [nM]
1 | Cc1ccc(-c2cc(C(=O)N[C@H](C)CO)cc(-c3nsnc3C(C)C)c2)nc1 [Compound 1, N-((R)-2-Hydroxy-1-methyl-ethyl)-3-(4-isopropyl-[1,2,5]thiadiazol-3-yl)-5-(5-methyl-pyridin-2-yl)-benzamide] | 72.4 | 6.92
2 | COCC(C)NC(=O)c1cc(-c2ccc(C)cc2)cc(-c2csnn2)c1 (stereo not shown) [Compound 2, 4′-Methyl-5-[1,2,3]thiadiazol-4-yl-biphenyl-3-carboxylic acid (2-methoxy-1-methyl-ethyl)-amide] |  | 4680
3 | Cc1ccc(-c2cc(C(=O)NCc3cnc(C)cn3)cc(-c3snnc3C(C)C)c2)nc1 [Compound 3, 3-(4-Isopropyl-[1,2,3]thiadiazol-5-yl)-N-(5-methyl-pyrazin-2-ylmethyl)-5-(5-methyl-pyridin-2-yl)-benzamide] | 37.2 | 9.12
4 | Cc1ccc(-c2cc(C(=O)N[C@H](C)CO)cc(-c3snnc3C(C)C)c2)nc1 [Compound 4, N-((R)-2-Hydroxy-1-methyl-ethyl)-3-(4-isopropyl-[1,2,3]thiadiazol-5-yl)-5-(5-methyl-pyridin-2-yl)-benzamide] | 214 | 4.27
5 | Cc1ccc(-c2cc(C(=O)NCc3cnc(C)nc3)cc(-c3snnc3C(C)C)c2)nc1 [Compound 5, 3-(4-Isopropyl-[1,2,3]thiadiazol-5-yl)-5-(5-methyl-pyridin-2-yl)-N-(2-methyl-pyrimidin-5-ylmethyl)-benzamide] | 33.9 | 8.91
6 | Cc1ccc(-c2cc(C(=O)NCc3ncc(C)cn3)cc(-c3snnc3C(C)C)c2)nc1 [Compound 6, 3-(4-Isopropyl-[1,2,3]thiadiazol-5-yl)-5-(5-methyl-pyridin-2-yl)-N-(5-methyl-pyrimidin-2-ylmethyl)-benzamide] | 105 | 16.6
7 | Cc1ccc(-c2cc(C(=O)NCc3cnc(C)cn3)cc(-c3nsnc3C(C)C)c2)nc1 [Compound 7, 3-(4-Isopropyl-[1,2,5]thiadiazol-3-yl)-N-(5-methyl-pyrazin-2-ylmethyl)-5-(5-methyl-pyridin-2-yl)-benzamide] | 43.7 | 18.2
